{"source": "paper PMC4585962", "about": "“A peptide factor secreted by Staphylococcus pseudintermedius exhibits properties of both bacteriocins and virulence factors” (Scientific Reports, 2015)", "key": {"B. subtilis": {"test_system": "B. subtilis", "test": "Bactericidal test, plating on TSA after incubation", "assay_type": "cell-based, Bacillus subtilis", "conditions": "1 × 10^4 CFU incubated with 1 μM bacteriocin for 30 minutes (data not shown)"}, "[1]": {"test_system": "B. subtilis 1A751 (pALCP2G)", "test": "GFP release assay", "assay_type": "cell-based, Bacillus subtilis", "conditions": "2 × 10^6 CFU in PBS, 1 h 37 °C, 0.23 to 15 μM BacSp222, fluorescence of supernatant 480/510 nm", "description": "The bacteria transformed with GFP-encoding plasmids (pCN68[59] for S. aureus RN4220; pALCP2G[60] for B. subtilis 1A751[61] and E. coli DH5α) were grown overnight in TSB supplemented with appropriate antibiotics, washed twice and finally suspended in PBS. Fifty microliters of the suspensions containing 2 × 10^6 CFU of bacteria were then incubated for 1 h at 37 °C with serial dilutions of BacSp222 at concentrations ranging from 0.23 to 15 μM. Then, the bacteria were spun down, and the fluorescence in the supernatant was determined (Synergy H1 microplate reader, BioTek, 480/510 nm excitation/emission wavelengths). As the controls for 100% GFP release, S. aureus and B. subtilis were lysed using lysostaphin and chicken egg white lysozyme (Sigma), respectively, whereas the E. coli cells were disrupted by ultrasonication."}, "[2]": {"test": "Temperature stability, residual bactericidal activity", "assay_type": "physicochemical", "conditions": "30 μM in PBS, full cycle of autoclaving, 20 min at 121 °C; radial diffusion assay on B. subtilis; 100% = untreated BacSp222; triplicate ± SD", "description": "The bactericidal activity of BacSp222 was also determined using the radial diffusion assay. In TSB agar (1%, w/v) containing a 200× diluted overnight culture of Bacillus subtilis ATCC 6633, wells of 2.4-mm diameter were created by drilling out the agar and filling the hole with 10 μl of the BacSp222 preparation for testing. Following overnight incubation at 37 °C, the bactericidal activity was measured as the area of the inhibition zones.\nThe temperature stability of BacSp222 (30 μM final concentration) was determined in PBS. The solution was incubated for 1 or 3 h at 72 °C (typical temperature of pasteurization) or at 100 °C. Independently, a solution of bacteriocin was also subjected to a full cycle of autoclaving (20 min at 121 °C). The susceptibility of BacSp222 to proteolysis was verified using S. aureus staphopain C and V8 peptidase, human neutrophil elastase, human cathepsin G (Biocentrum), bovine TPCK-treated trypsin, pepsin from porcine gastric mucosa (Sigma), and proteinase K (A&A Biotechnology). […] The residual activity was determined with the radial diffusion assay using Bacillus subtilis as an indicator strain. […]"}, "[3]": {"test_system": "adipose-derived stem cells (ASC)", "test": "Cytotoxicity, LDH and MTT assays", "assay_type": "cell-based", "conditions": "4 h exposure, said to be similar to the other cell types (Fig. S7)", "description": "Human skin fibroblasts (HSF, ATCC CRL-2522), adipose-derived stem cells (ASCs, ATCC PCS-500-011), and HeLa human epithelioid cervix carcinoma cells (ATCC CCL-2) were maintained in Dulbecco’s modified Eagle’s medium (DMEM, Sigma) containing 1 g/l glucose, 10% (v/v) foetal bovine serum (FBS), 1 U/ml penicillin, 1 μg/ml streptomycin, and 2.5 μg/ml amphotericin B. Murine P388/D1 monocyte/macrophage cells (ATCC CCL-46) and murine RAW264.7 macrophage-like cells (ATCC TIB-71) were cultured in DMEM containing 4.5 g/l glucose, 5% (v/v) FBS, and antibiotics, as indicated above. Keratinocytes from human skin were grown in KBM Gold Medium (Lonza). All cells were incubated in standard conditions (5% CO2, 37 °C, >95% humidity). […] After a 30-min incubation (RT, in the dark), the reaction was stopped, and the absorbance was measured with a microplate reader (PowerWave X, BioTek Instruments) at 490 nm, followed by subtraction of the absorbance reference value at 690 nm. […] The absorbance of solubilized purple formazan was measured at 540 nm, followed by subtraction of the absorbance reference value at 690 nm. […] The amount of released haemoglobin was spectrophotometrically determined at 540 nm and compared with a positive control (erythrocytes lysed with 1% sodium dodecyl sulphate)."}}, "note": "No end group written: not given here. *: point of attachment. For = O=C*", "data": [{"substance": "For-MAGLLRFLLSKGRALYNWAKSHVGKVWEWLKSGATYEQIKEWIENALGWR [BacSp222]", "values": [{"measurement": "colonies after plating on TSA", "setting": "B. subtilis", "value": "complete absence of the colonies"}, {"measurement": "leakage of GFP from recombinant cells", "setting": "[1]", "value": "dose-dependent leakage of GFP was observed"}, {"measurement": "activity against the indicator strain after autoclaving", "setting": "[2]", "value": "55 ± 8.8", "unit": "%"}, {"measurement": "cytotoxic effect", "setting": "[3]", "value": "sigmoidal, dose-dependent cytotoxic effect"}]}]}
